In article PMC3928314, “Identification and Characterization of Sebaceous Gland Atrophy-Sparing DGAT1 Inhibitors” (PLoS ONE, 2014):
pIC50: −log10 of the molar value. Several values for one entry are separate records, joined by “and”; a condition that tells them apart may be missing. Equal values may be shown once. Entries after “also recorded” stand apart in the source; their conditions may differ. Read-outs that look alike come from different tables or passages of the source.

How the values were obtained:
[1] = Skin compound concentration after 14 days oral dosing; type: in vivo, mouse; conditions: DIO mice; for Skin (skin concentration): oral 30 mg/kg or dose indicated (Cpd1 3 mg/kg), 14 days, trough, BLQ = below detection; for Kp: male, C57BL/6, mouse, skin/plasma, 14 days oral dosing, read-out: Skin/Plasma Ratio (skin to plasma concentration ratio)
Description: (§1) Experiments were performed in male diet induced obese C57BL/6 mice (Taconic Farms, Germantown, NY) that were fed high-fat diet (D12492: 60% kcal from fat; Research Diets) in a 12 hr light/12 hr dark cycle. Animal protocols used in these studies were approved by the Merck Research Laboratories Institutional Animal Care and Use Committee (Rahway, NJ). Mice were acclimated to nonspecific stress for 7 days before the onset of the chronic dosing studies where they were dosed orally with vehicle (0.5% methylcellulose) or compounds at 30 mg/kg, or at doses indicated, for 14 days.
The skin tissue samples from mice were weighted and placed in 48-well plates (or tubes). […] An aliquot of 100 µL homogenized blank skin tissue samples were transferred to 96-well plates designated for standard curve and QCs. […] An aliquot of 100 µL dosed skin tissue homogenates were transferred to the 96-well plate and a 25 µL aliquot of acetonitrile:water 1∶1 was added into each well containing dosed tissue samples to make the volumes of all samples, stds, and QCs equal. Protein precipitation was used for sample extraction by the addition of 500 µL of acetonitrile crash solution, containing IS. Internal standard used was Alprazolam (Sigma Aldrich) at 100 µM in the crash solution. Samples were vortexed for 30 seconds and then centrifuged at 4000 rpm for 5 min. The supernatant was transferred to a separate plate.
A Thermo Scientific-Cohesive LX-2 system consisting of a CTC Analytics autosampler, Flux Instruments AG pumps, and a valve module, controlled by Aria software was used. A Sciex API-4000 mass spectrometer (Toronto, Canada) was the detector using Analyst 1.4.2 software. The aqueous mobile phase (A) was water with 0.1% formic acid and the organic mobile phase (B) was acetonitrile with 0.1% formic acid. A gradient chromatographic profile was used. […] Then over 90 seconds, the chromatic conditions were ramped to 5% A and 95% B. This was held for 25 seconds when the conditions were changed back to original 95% A and 5% B and held for 50 seconds. […] A turbo ionspray interface was used in positive ion mode for detection of analytes. Multiple reaction monitoring (MRM) was used to measure the analyte response. The peak area ratio of analyte to internal standard for nominal concentrations was used to make a linear regression line with a 1/x2 weighting factor. The line's equation was used to determine the concentration in the unknown samples.

[2] = Plasma compound concentration after 14 days oral dosing; type: in vivo, mouse; conditions: DIO mice, oral 30 mg/kg or dose indicated (Cpd1 3 mg/kg), trough
Description: as §1
Concentrations of compounds in plasma were determined by LC-MS/MS following protein precipitation. To 100 µL of plasma sample, 20 µL of an acetonitrile solution of the internal standard (2,500 ng/ml), was added. This step was followed by protein precipitation with 300 µL of acetonitrile. Samples expected to contain analyte concentrations exceeding the upper limits of the calibration curves were diluted with control plasma. Sample mixtures were vortex-mixed for 15 minutes. After spinning in a centrifuge for 15 minutes at 1,000× g (at 10°C), the supernatants were transferred by a Tomtec Quadra 96 Model 320 (Hamden, CT) to Empore 96 filter plates (Fisher Scientific, Springfield, NJ), and the resulting filtrates collected. These filtrates were dried at 25°C under a stream of nitrogen gas, on a Zymark TurboVap 96 (Hopkinton, MA). The residues were reconstituted with 100 µL of a 8∶2, v/v, mixture of mobile phases A (20 mM aqueous ammonium acetate containing 0.01% formic acid), and B (80∶20, v/v, acetonitrile:methanol), vortex-mixed, spun in a centrifuge at 1,000× g (at 10°C), then analyzed by LC-MS/MS.
The LC-MS/MS system comprised of a Leap Technologies HTS-PAL autosampler (Carrboro, North Carolina), two Perkin Elmer Series 200 Micro Pumps (Norwalk, CT), an in-line pre-column filter, a Type W 6-port Valco switching valve (Vici, Houston, TX), and a Sciex API 365 mass spectrometer (Toronto, Canada). Chromatographic separation of the analytes was achieved by RP-HPLC.
Data were acquired and processed by Sciex Analyst version 1.1 software. Peak area ratios of analyte to internal standard were plotted as a function of the nominal concentrations of the analyte. A line of best fit was generated from the curve points by linear regression with a weighting factor of 1/x2. The equation of this line was then used to calculate the plasma […] in samples.

[3] = tested on: male diet induced obese C57BL/6 mice; experiment: Skin histology, sebaceous gland atrophy in DIO mice; type: in vivo, mouse; conditions: for Sebaceous gland atrophy in skin, in words (skin-positive / skin-negative): 14 days of treatment; for Sebaceous gland size (area), Geometric Mean: dorsal skin biopsies, Cpd1 3 mg/kg, Cpd2 and Cpd3 30 mg/kg, n 10; for Sebaceous gland size (area), Geometric Mean / Scoring (histological adverse effect score, sebaceous gland atrophy): 14 days; for Scoring (histological adverse effect score, sebaceous gland atrophy): oral 30 mg/kg or dose indicated (Cpd1 3 mg/kg), dorsal skin
Description: as §1
Skin samples from DIO mice treated with DGAT1 inhibitors for 14 days were collected from the dorsal and/or ventral surface and immediately fixed in 10% buffered formalin for 24 hr at room temperature and embedded in paraffin. Paraffin specimens were sectioned at 5 µm and stained with hematoxylin and eosin, and were evaluated blindly with light microscopy. […] One slide/location with at least 50 sebaceous glands was used for scoring purposes. Digital images were captured using a 20× objective and the ScanScope XT slide scanner system (Aperio Technologies, Vista, CA) and managed using Spectrum (Aperio). The size of the sebaceous glands were measured using ImageScope of Aperio system by the method previously described.

[4] = Measured logD by high-throughput HPLC; type: physicochemical; conditions: reversed-phase HPLC, Poroshell 120 EC-C18 column; HT HPLC, pH 7.0; read-out: mlogD (measured logD)
Description: LogD was measured by high-throughput (HT) HPLC at pH 7.0. The chromatographic system consisted of an Agilent 1200 HPLC system composed of a G1379B degasser, G1312B binary pump, G1367C well-plate autosampler, G1316B thermostatted column compartment, G1315C diode-array UV-vis detector, and ChemStation software, all from Agilent Technologies, USA. The separations were carried out on a Poroshell 120 EC-C18, 30 mm×3.0 mm I.D., 2.7 µm, (Agilent Technologies, USA). The mobile phase consisted of phosphate buffered saline at pH 7 (mobile phase A) and acetonitrile (mobile phase B). The column oven temperature was set to 30°C. The HPLC analysis began with an isocratic step of 0.2 minutes at 5% B at 1.5 ml/min, followed by a gradient from 5% to 98% B in 1.0 minute at 1.5 ml/min. A second isocratic step of 0.2 minutes at 98% B with a changing flow rate from 1.5 to 2.0 ml/min was then followed by a gradient from 98 to 5% B in 0.1 minutes with the flow rate changing from 2.0 to 1.5 ml/min. The equilibration time between injections is 0.2 minutes at 5% B. The injection volume is 5 µL and the spectrophotometric detection was set to 215, 238 and 254 nm.
A 10 mM DMSO stock solution of compound was delivered for analysis. A 100 µM standard solution was generated by diluting 10 µL of the 10 mM stock solution with 990 µL of diluent (10% DMSO/10% MeCN/80% MeOH, v/v/v). The chromatographic system was calibrated with a set of standards with published shake-flask logD values. Linear regression was used to determine the calibration line relating the retention time to logD for the calibration standards. This line was then used to determine the HT HPLC logD7.0 value of compound from the measured retention time by the HPLC/DAD analysis of the 100 µM standard solution.

rats = experiment: Longer exposure in rats, skin adverse effects; type: in vivo, rat; conditions: up to 300 mg/kg for 4 weeks, data not shown
[5] = Unbound fraction (Fu) in plasma by equilibrium dialysis; type: in vitro ADME; conditions: pH 7.4, mouse plasma, equilibrium dialysis 4 hr 37°C
Description: Plasma protein binding was determined by equilibrium dialysis with an incubation period of 4 hr at 37°C. The dialysis membrane (10-12K MWCO, HTDialysis, LLC) was hydrated and the dialysis apparatus (HTDialysis, LLC) assembled according to the manufacturer's directions. A 150 µL aliquot of mouse plasma containing compound (5 µM) was added to one side of the dialysis membrane. A 150 µL aliquot of phosphate buffered saline (pH 7.4) was added to the opposite side. The plate was then sealed and placed in a shaking incubator set to maintain a temperature of 37°C and constant shaking rate of 60 rpm for 4 hr. At the end of the incubation period, 50 µL aliquots of plasma and buffer were removed and analyzed by LC-MS/MS. Percent unbound was determined as the amount of compound in buffer (post incubation) divided by amount of compound in plasma (post incubation) x100.

mDGAT1 = target: T1, mDGAT1 (Mus musculus, UniProt Q9Z2A7); experiment: DGAT1 enzyme assay; type: biochemical; conditions: in vitro potency
T1 construct: made in house; host or cells: Pichia (membrane preparations)
T1 sequence (Q9Z2A7 1-498): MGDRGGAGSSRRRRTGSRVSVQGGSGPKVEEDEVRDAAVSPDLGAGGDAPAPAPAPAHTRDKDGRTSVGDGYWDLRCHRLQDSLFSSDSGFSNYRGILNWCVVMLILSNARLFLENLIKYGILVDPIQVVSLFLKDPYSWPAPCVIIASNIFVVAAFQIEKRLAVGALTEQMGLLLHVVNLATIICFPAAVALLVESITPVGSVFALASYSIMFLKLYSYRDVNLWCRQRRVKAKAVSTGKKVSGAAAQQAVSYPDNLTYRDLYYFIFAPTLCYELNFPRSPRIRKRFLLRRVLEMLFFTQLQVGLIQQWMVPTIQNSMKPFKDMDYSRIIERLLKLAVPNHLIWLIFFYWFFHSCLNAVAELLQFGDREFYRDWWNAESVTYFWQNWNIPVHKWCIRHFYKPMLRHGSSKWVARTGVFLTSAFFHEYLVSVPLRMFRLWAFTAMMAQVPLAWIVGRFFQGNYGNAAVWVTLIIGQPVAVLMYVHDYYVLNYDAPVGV

SMILES	Skin (skin concentration) [1]	Kp [1]	Plasma (plasma concentration) [2]	Sebaceous gland atrophy in skin, in words (skin-positive / skin-negative) [3]	Sebaceous gland size (area), Geometric Mean [3]	Scoring (histological adverse effect score, sebaceous gland atrophy) [3]	chromatographic logD [4]	Adverse effects in skin (rats)	Kp ([1]; po)	fraction unbound at 4 h, 5 µM [5]	pIC50 (mDGAT1)	IC50 (mDGAT1; same values in µM)
Nc1ncnc2c1C(=O)N(c1ccc([C@H]3CC[C@H](CC(=O)O)CC3)cc1)CCO2 [Cpd1]	0.0621 µM	0.32	0.194 µM	lack of skin AEs; also recorded: appeared normal; also recorded: Skin-Negative	1805	not remarkable	0.35	no adverse effects in skin				
CC(C)(C)OC(=O)NC1(C(=O)N[C@@H]2CC(=O)c3ccccc3N(Cc3cc(C(F)(F)F)cc(C(F)(F)F)c3)C2=O)CC1 [Cpd2]	2.16 µM and 1.94 µM and 2.25 µM		0.124 µM and 0.106 µM and 0.163 µM	induce either “minimal to mild” or “moderate to marked” skin sebaceous gland atrophy; also recorded: Skin-Positive	880	moderate to marked	4.04		17.5	0.01		
O=C(Nc1ccc([C@H]2CC[C@H](C(=O)O)CC2)cc1F)c1nnc(Nc2ccc(F)c(F)c2)o1 [Cpd3]	0.135 µM	0.098	1.38 µM	induce either “minimal to mild” or “moderate to marked” skin sebaceous gland atrophy	1562	minimal to mild	1.73			0.063	7.96	0.011 µM
CC(C)(O)C[C@H]1CC[C@H](c2ccc(N3CCOc4ncnc(N)c4C3=O)cc2)CC1 [Cpd22]	BLQ		51.4 µM	induce either “minimal to mild” or “moderate to marked” skin sebaceous gland atrophy		moderate to marked	2.15			0.112		
